Results on 13 compounds are retold here after ChEMBL document CHEMBL1909570, “Synthesis and antibacterial activity of N4-mono alkyl derivatives of novel glycopeptide LYV07ww01” (2011).

Holding throughout (assay type): functional
One experiment deals with Staphylococcus. Briefly: Antibacterial activity against Staphylococcus albus 26101 by CLSI agar microdilution method.
The subject of a further experiment is Streptococcus. Briefly: Antibacterial activity against Streptococcus gamma 32206 by CLSI agar microdilution method.
The subject of the next experiment is Enterococcus faecium. Briefly: Antibacterial activity against Enterococcus faecium 32220 by CLSI agar microdilution method.
Another experiment deals with Staphylococcus aureus. Briefly: Antibacterial activity against Staphylococcus aureus 26003 by CLSI agar microdilution method.
In another experiment the test system is Streptococcus pneumoniae. Briefly: Antibacterial activity against Streptococcus pneumoniae 31002 by CLSI agar microdilution method.
Experiment [1] relates to Staphylococcus epidermidis. Briefly: Antibacterial activity against Staphylococcus epidermidis 26069 by CLSI agar microdilution method.

Converted amounts (≈) assume the structure as drawn.

One may read the MIC as the lowest concentration that inhibits growth of the organism.

With `CCCCCCCN[C@@]1(C)C[C@H](O[C@H]2[C@H](Oc3c4cc5cc3Oc3ccc(cc3Cl)[C@@H](O[C@H]3C[C@](C)(N)[C@H](O)[C@H](C)O3)[C@@H]3NC(=O)[C@H](NC(=O)[C@@H]5NC(=O)[C@H](CC(N)=O)NC(=O)[C@H](NC(=O)[C@@H](CC(C)C)NC)[C@H](O)c5ccc(c(Cl)c5)O4)c4ccc(O)c(c4)-c4c(O)cc(O)cc4[C@H](C(=O)O)NC3=O)O[C@H](CO)[C@@H](O)[C@@H]2O)O[C@@H](C)[C@H]1O`, the MIC is 1.56 µg/mL (≈ 0.923 µM) against Staphylococcus; 1.56 µg/mL (≈ 0.923 µM) in the experiment with Streptococcus; over 25 µg/mL against Enterococcus faecium; 1.56 µg/mL (≈ 0.923 µM) against Staphylococcus aureus; 0.78 µg/mL (≈ 0.461 µM) with Streptococcus pneumoniae; over 25 µg/mL in experiment [1].
Consider `CCCCCCCCCOc1ccc(CN[C@@]2(C)C[C@H](O[C@H]3[C@H](Oc4c5cc6cc4Oc4ccc(cc4Cl)[C@@H](O[C@H]4C[C@](C)(N)[C@H](O)[C@H](C)O4)[C@@H]4NC(=O)[C@H](NC(=O)[C@@H]6NC(=O)[C@H](CC(N)=O)NC(=O)[C@H](NC(=O)[C@@H](CC(C)C)NC)[C@H](O)c6ccc(c(Cl)c6)O5)c5ccc(O)c(c5)-c5c(O)cc(O)cc5[C@H](C(=O)O)NC4=O)O[C@H](CO)[C@@H](O)[C@@H]3O)O[C@@H](C)[C@H]2O)cc1`, for which the MIC was 25 µg/mL (≈ 13.7 µM) in the experiment with Staphylococcus; 12.5 µg/mL (≈ 6.85 µM) against Streptococcus; 12.5 µg/mL (≈ 6.85 µM) in the experiment with Enterococcus faecium; 12.5 µg/mL (≈ 6.85 µM) in the experiment on Staphylococcus aureus; 12.5 µg/mL (≈ 6.85 µM) in the experiment on Streptococcus pneumoniae; over 25 µg/mL in experiment [1].
Take `CN[C@H](CC(C)C)C(=O)N[C@H]1C(=O)N[C@@H](CC(N)=O)C(=O)N[C@H]2C(=O)N[C@H]3C(=O)N[C@H](C(=O)N[C@@H](C(=O)O)c4cc(O)cc(O)c4-c4cc3ccc4O)[C@H](O[C@H]3C[C@](C)(N)[C@H](O)[C@H](C)O3)c3ccc(c(Cl)c3)Oc3cc2cc(c3O[C@@H]2O[C@H](CO)[C@@H](O)[C@H](O)[C@H]2O[C@H]2C[C@](C)(NCc3cccc(Cl)c3)[C@H](O)[C@H](C)O2)Oc2ccc(cc2Cl)[C@H]1O`: the MIC was 1.56 µg/mL (≈ 0.909 µM) with Staphylococcus; 0.78 µg/mL (≈ 0.454 µM) in the experiment on Streptococcus; 1.56 µg/mL (≈ 0.909 µM) in the experiment with Enterococcus faecium; 1.56 µg/mL (≈ 0.909 µM) against Staphylococcus aureus; 0.78 µg/mL (≈ 0.454 µM) against Streptococcus pneumoniae; over 25 µg/mL in experiment [1].
For `CN[C@H](CC(C)C)C(=O)N[C@H]1C(=O)N[C@@H](CC(N)=O)C(=O)N[C@H]2C(=O)N[C@H]3C(=O)N[C@H](C(=O)N[C@@H](C(=O)O)c4cc(O)cc(O)c4-c4cc3ccc4O)[C@H](O[C@H]3C[C@](C)(N)[C@H](O)[C@H](C)O3)c3ccc(c(Cl)c3)Oc3cc2cc(c3O[C@@H]2O[C@H](CO)[C@@H](O)[C@H](O)[C@H]2O[C@H]2C[C@](C)(NCc3cccc4ccccc34)[C@H](O)[C@H](C)O2)Oc2ccc(cc2Cl)[C@H]1O`, the minimal inhibitory concentration (MIC) is 1.56 µg/mL (≈ 0.9 µM) against Staphylococcus; 6.25 µg/mL (≈ 3.61 µM) against Streptococcus; 1.56 µg/mL (≈ 0.9 µM) with Enterococcus faecium; 1.56 µg/mL (≈ 0.9 µM) against Staphylococcus aureus; 0.78 µg/mL (≈ 0.45 µM) in the experiment with Streptococcus pneumoniae; over 25 µg/mL in experiment [1].
On to `CN[C@H](CC(C)C)C(=O)N[C@H]1C(=O)N[C@@H](CC(N)=O)C(=O)N[C@H]2C(=O)N[C@H]3C(=O)N[C@H](C(=O)N[C@@H](C(=O)O)c4cc(O)cc(O)c4-c4cc3ccc4O)[C@H](O[C@H]3C[C@](C)(N)[C@H](O)[C@H](C)O3)c3ccc(c(Cl)c3)Oc3cc2cc(c3O[C@@H]2O[C@H](CO)[C@@H](O)[C@H](O)[C@H]2O[C@H]2C[C@](C)(NCc3ccc(Cl)cc3Cl)[C@H](O)[C@H](C)O2)Oc2ccc(cc2Cl)[C@H]1O`, for which the MIC was determined as 3.13 µg/mL (≈ 1.79 µM) in the experiment with Staphylococcus; 1.56 µg/mL (≈ 0.891 µM) against Streptococcus; 1.56 µg/mL (≈ 0.891 µM) against Enterococcus faecium; 3.13 µg/mL (≈ 1.79 µM) against Staphylococcus aureus; 3.13 µg/mL (≈ 1.79 µM) against Streptococcus pneumoniae; 25 µg/mL (≈ 14.3 µM) in experiment [1].
In the case of `CN[C@H](CC(C)C)C(=O)N[C@H]1C(=O)N[C@@H](CC(N)=O)C(=O)N[C@H]2C(=O)N[C@H]3C(=O)N[C@H](C(=O)N[C@@H](C(=O)O)c4cc(O)cc(O)c4-c4cc3ccc4O)[C@H](O[C@H]3C[C@](C)(N)[C@H](O)[C@H](C)O3)c3ccc(c(Cl)c3)Oc3cc2cc(c3O[C@@H]2O[C@H](CO)[C@@H](O)[C@H](O)[C@H]2O[C@H]2C[C@](C)(NCc3cccs3)[C@H](O)[C@H](C)O2)Oc2ccc(cc2Cl)[C@H]1O`, the MIC is over 25 µg/mL in the experiment with Staphylococcus; 25 µg/mL (≈ 14.8 µM) with Streptococcus; 12.5 µg/mL (≈ 7.4 µM) against Enterococcus faecium; 25 µg/mL (≈ 14.8 µM) against Staphylococcus aureus; 6.25 µg/mL (≈ 3.7 µM) in the experiment with Streptococcus pneumoniae; over 25 µg/mL in experiment [1].
In the case of `CCCCCCCCCCNCCN[C@@]1(C)C[C@H](O[C@H]2[C@H](Oc3c4cc5cc3Oc3ccc(cc3Cl)[C@@H](O[C@H]3C[C@](C)(N)[C@H](O)[C@H](C)O3)[C@@H]3NC(=O)[C@H](NC(=O)[C@@H]5NC(=O)[C@H](CC(N)=O)NC(=O)[C@H](NC(=O)[C@@H](CC(C)C)NC)[C@H](O)c5ccc(c(Cl)c5)O4)c4ccc(O)c(c4)-c4c(O)cc(O)cc4[C@H](C(=O)O)NC3=O)O[C@H](CO)[C@@H](O)[C@@H]2O)O[C@@H](C)[C@H]1O`, the MIC in the experiment with Staphylococcus is 6.25 µg/mL (≈ 3.52 µM); against Streptococcus it was 3.13 µg/mL (≈ 1.76 µM); against Enterococcus faecium, 12.5 µg/mL (≈ 7.04 µM); in the experiment on Staphylococcus aureus, 6.25 µg/mL (≈ 3.52 µM); against Streptococcus pneumoniae, 3.13 µg/mL (≈ 1.76 µM); in experiment [1], over 25 µg/mL.
Turning to `CN[C@H](CC(C)C)C(=O)N[C@H]1C(=O)N[C@@H](CC(N)=O)C(=O)N[C@H]2C(=O)N[C@H]3C(=O)N[C@H](C(=O)N[C@@H](C(=O)O)c4cc(O)cc(O)c4-c4cc3ccc4O)[C@H](O[C@H]3C[C@](C)(N)[C@H](O)[C@H](C)O3)c3ccc(c(Cl)c3)Oc3cc2cc(c3O[C@@H]2O[C@H](CO)[C@@H](O)[C@H](O)[C@H]2O[C@H]2C[C@](C)(NCc3cc(F)c(F)cc3F)[C@H](O)[C@H](C)O2)Oc2ccc(cc2Cl)[C@H]1O`, the MIC in the experiment with Staphylococcus stood at 3.13 µg/mL (≈ 1.8 µM); in the experiment with Streptococcus, 12.5 µg/mL (≈ 7.2 µM); in the experiment on Enterococcus faecium, 1.56 µg/mL (≈ 0.898 µM); in the experiment with Staphylococcus aureus it was 1.56 µg/mL (≈ 0.898 µM); in the experiment with Streptococcus pneumoniae it was 1.56 µg/mL (≈ 0.898 µM); in experiment [1], 12.5 µg/mL (≈ 7.2 µM).
With `CN[C@H](CC(C)C)C(=O)N[C@H]1C(=O)N[C@@H](CC(N)=O)C(=O)N[C@H]2C(=O)N[C@H]3C(=O)N[C@H](C(=O)N[C@@H](C(=O)O)c4cc(O)cc(O)c4-c4cc3ccc4O)[C@H](O[C@H]3C[C@](C)(N)[C@H](O)[C@H](C)O3)c3ccc(c(Cl)c3)Oc3cc2cc(c3O[C@@H]2O[C@H](CO)[C@@H](O)[C@H](O)[C@H]2O[C@H]2C[C@](C)(NCc3ccc4ccccc4c3)[C@H](O)[C@H](C)O2)Oc2ccc(cc2Cl)[C@H]1O`, the MIC was 3.13 µg/mL (≈ 1.81 µM) with Staphylococcus; 0.78 µg/mL (≈ 0.45 µM) in the experiment on Streptococcus; 3.13 µg/mL (≈ 1.81 µM) in the experiment on Enterococcus faecium; 1.56 µg/mL (≈ 0.9 µM) against Staphylococcus aureus; 1.56 µg/mL (≈ 0.9 µM) against Streptococcus pneumoniae; over 25 µg/mL in experiment [1].
`CCCCCCCCN[C@@]1(C)C[C@H](O[C@H]2[C@H](Oc3c4cc5cc3Oc3ccc(cc3Cl)[C@@H](O[C@H]3C[C@](C)(N)[C@H](O)[C@H](C)O3)[C@@H]3NC(=O)[C@H](NC(=O)[C@@H]5NC(=O)[C@H](CC(N)=O)NC(=O)[C@H](NC(=O)[C@@H](CC(C)C)NC)[C@H](O)c5ccc(c(Cl)c5)O4)c4ccc(O)c(c4)-c4c(O)cc(O)cc4[C@H](C(=O)O)NC3=O)O[C@H](CO)[C@@H](O)[C@@H]2O)O[C@@H](C)[C@H]1O`: the MIC in the experiment on Staphylococcus is 3.13 µg/mL (≈ 1.84 µM); in the experiment on Streptococcus, 1.56 µg/mL (≈ 0.915 µM); in the experiment on Enterococcus faecium, 1.56 µg/mL (≈ 0.915 µM); against Staphylococcus aureus it was 3.13 µg/mL (≈ 1.84 µM); against Streptococcus pneumoniae, 0.39 µg/mL (≈ 0.229 µM); in experiment [1], over 25 µg/mL.
On to `CN[C@H](CC(C)C)C(=O)N[C@H]1C(=O)N[C@@H](CC(N)=O)C(=O)N[C@H]2C(=O)N[C@H]3C(=O)N[C@H](C(=O)N[C@@H](C(=O)O)c4cc(O)cc(O)c4-c4cc3ccc4O)[C@H](O[C@H]3C[C@](C)(N)[C@H](O)[C@H](C)O3)c3ccc(c(Cl)c3)Oc3cc2cc(c3O[C@@H]2O[C@H](CO)[C@@H](O)[C@H](O)[C@H]2O[C@H]2C[C@](C)(NCc3ccc(-c4ccc(Cl)cc4)cc3)[C@H](O)[C@H](C)O2)Oc2ccc(cc2Cl)[C@H]1O`, for which the MIC was determined as 3.13 µg/mL (≈ 1.75 µM) against Staphylococcus; 3.13 µg/mL (≈ 1.75 µM) with Streptococcus; 6.25 µg/mL (≈ 3.49 µM) against Enterococcus faecium; 6.25 µg/mL (≈ 3.49 µM) in the experiment on Staphylococcus aureus; 3.13 µg/mL (≈ 1.75 µM) in the experiment on Streptococcus pneumoniae; 6.25 µg/mL (≈ 3.49 µM) in experiment [1].
Regarding `CCCCCCN[C@@]1(C)C[C@H](O[C@H]2[C@H](Oc3c4cc5cc3Oc3ccc(cc3Cl)[C@@H](O[C@H]3C[C@](C)(N)[C@H](O)[C@H](C)O3)[C@@H]3NC(=O)[C@H](NC(=O)[C@@H]5NC(=O)[C@H](CC(N)=O)NC(=O)[C@H](NC(=O)[C@@H](CC(C)C)NC)[C@H](O)c5ccc(c(Cl)c5)O4)c4ccc(O)c(c4)-c4c(O)cc(O)cc4[C@H](C(=O)O)NC3=O)O[C@H](CO)[C@@H](O)[C@@H]2O)O[C@@H](C)[C@H]1O`, the MIC with Staphylococcus is 3.13 µg/mL (≈ 1.87 µM); in the experiment with Streptococcus, 1.56 µg/mL (≈ 0.93 µM); against Enterococcus faecium it was over 25 µg/mL; against Staphylococcus aureus it was 1.56 µg/mL (≈ 0.93 µM); in the experiment with Streptococcus pneumoniae, 0.78 µg/mL (≈ 0.465 µM); in experiment [1], over 25 µg/mL.
For the compound `CN[C@H](CC(C)C)C(=O)N[C@H]1C(=O)N[C@@H](CC(N)=O)C(=O)N[C@H]2C(=O)N[C@H]3C(=O)N[C@H](C(=O)N[C@@H](C(=O)O)c4cc(O)cc(O)c4-c4cc3ccc4O)[C@H](O[C@H]3C[C@](C)(N)[C@H](O)[C@H](C)O3)c3ccc(c(Cl)c3)Oc3cc2cc(c3O[C@@H]2O[C@H](CO)[C@@H](O)[C@H](O)[C@H]2O[C@H]2C[C@](C)(NCc3ccc(Oc4cccc(OC)c4)cc3)[C@H](O)[C@H](C)O2)Oc2ccc(cc2Cl)[C@H]1O`, the MIC against Staphylococcus was 3.13 µg/mL (≈ 1.73 µM); against Streptococcus it was 0.78 µg/mL (≈ 0.432 µM); against Enterococcus faecium it was 3.13 µg/mL (≈ 1.73 µM); against Staphylococcus aureus it was 3.13 µg/mL (≈ 1.73 µM); against Streptococcus pneumoniae, 3.13 µg/mL (≈ 1.73 µM); in experiment [1], over 25 µg/mL.
